# Experimental data published in patent publication US12636319B2, “Pharmaceutical composition for preventing or treating atopic disease containing Akkermansia muciniphila strain” (ENTEROBIOME INC., priority 2020, dated 2026).
# Key:
# [1] = system: Bacteroides thetiotaomicron ATCC 29741; assay: MIC by CLSI broth microdilution, QC strain; format: cell-based
# [2] = system: Akkermansia muciniphila ATCC BAA-835; assay: MIC by CLSI broth microdilution, type strain; format: cell-based; conditions: ATCCBAA835, test strain ATCC BAA-835
# [3] = system: Akkermansia muciniphila EB-AMDK19; assay: MIC by CLSI broth microdilution, isolated strain; format: cell-based; conditions: EBAMDK19, test strain EB-AMDK19
# [4] = system: DNCB-induced atopic dermatitis in NC/Nga mice; assay: Dermatitis score (modified SCORAD) in DNCB-induced atopic dermatitis; format: in vivo, mouse; conditions: week 6, compared to the atopic dermatitis-induced group; oral daily
# Method: (§1) The Akkermansia muciniphila ATCC BAA-835 strain and Akkermansia muciniphila EB-AMDK19 live bacteria used in this experiment were prepared at a concentration of 1×10^8 CFU/150 μl PBS (25% glycerol, 0.05% cysteine/PBS).
# (§2) To observe atopic dermatitis lesions, 6-week-old NC/Nga mice (weighed about 21 to 25 g, SLC, Inc., Japan) were purchased from Daehan Biolink Co., Ltd. (Chungbuk, Korea). Animal tests were carried out in accordance with the Animal use and Care Protocol of the Institutional Animal Care and Use Committee (IACUC). The animals were acclimated for one week, and then raised for 9 weeks at a constant temperature of 22° C. and a relative humidity of 50 to 60% with a 12-hr light/12-hr dark cycle.
# (§3) The backs of 6-week-old NC/Nga mice were shaved clean, and then left to stand for 24 hours so that fine wounds of the skin were healed. […]
# After atopic dermatitis was induced by DNCB, treatment was performed by administering a preparation containing each of dexamethasone (DEX), the ATCC BAA-835 strain and the EB-AMDK19 strain for 6 weeks. […] Skin dryness, edema, erythema/hemorrhage, and erosion/excoriation were scored as follows: no symptoms=0, weak symptoms=1, moderate symptoms=2, and severe symptoms=3.
# [5] = system: DNCB-induced atopic dermatitis in NC/Nga mice; assay: Ear edema (ear thickness) in DNCB-induced atopic dermatitis; format: in vivo, mouse; conditions: at 6 weeks; normal group 0.55 mm, atopic dermatitis-induced group 1.50 mm
# Method: as §1, §2
# (§4) The backs of 6-week-old NC/Nga mice were shaved clean, and then left to stand for 24 hours so that fine wounds of the skin were healed. 1% 2,4-dinitrochlorobenzene (DNCB) solution (Sigma-Aldrich Korea) was applied to the back of each mouse twice a week for 3 weeks to induce an immune response, and then 0.5% DNCB solution was applied twice a week to induce contact dermatitis. […]
# After severe atopic dermatitis was induced, the mice after completion of the experiment were sacrificed by anesthetizing with CO2, and then the degree of edema of both ears was measured by the velocity transformation technique using a thickness gauge (Digimatic thickness gauge, 547-301, Mitutoyo, Japan).
# [6] = system: DNCB-induced atopic dermatitis in NC/Nga mice; assay: Scratching frequency in DNCB-induced atopic dermatitis; format: in vivo, mouse; conditions: scratching for 10 minutes, day before end; compared to the atopic dermatitis-induced group
# Method: as §1, §2, §4
# The day before the end of the experiment, the frequency of scratching the affected area due to itching was measured. For measurement of the frequency of scratching, each mouse was acclimated for 10 minutes, and then the frequency of scratching for 10 minutes was measured using a counter.
# [7] = system: DNCB-induced atopic dermatitis in NC/Nga mice; assay: Spleen weight in DNCB-induced atopic dermatitis; format: in vivo, mouse; conditions: end of experiment; compared to the atopic dermatitis-induced group
# Method: as §1, §2, §3
# Thus, the weight of the spleen was measured to observe the effect of the composition for preventing atopic dermatitis on the immune organs of NC/Nga mice with atopic dermatitis induced by DNCB. […] The collected spleen tissues were washed with physiological saline, and then the sizes thereof were visually observed and the weights thereof were measured using a microbalance.
# [8] = system: IgE; assay: Serum IgE concentration by ELISA; format: in vivo, mouse
# Method: as §1, §2, §4
# At the end of the experiment, each of the mice was anesthetized with CO2 and blood was collected by cardiac puncture. The collected blood was centrifuged at 10,000 rpm for 5 minutes to separate the serum, and the serum IgE concentration was measured. […]
# [9] = system: Th2/Th1 cytokines; assay: Ratio of Th2/Th1 serum cytokines; format: in vivo, mouse; conditions: compared to the atopic dermatitis-induced group
# Method: as §1
# as §2, with “cycle. […]” for “cycle.”
# At the end of the experiment, the mice were anesthetized with CO2, and blood was collected by cardiac puncture. […] The concentrations of IL-4, IL-12, IFN-γ and IL-6 cytokines were measured using an ELISA kit (Invitrogen, CA, USA), and the results of the measurement are shown in FIGS. 17(A), 17(B), 18(A), and 18(B).
# From an immunological point of view, atopic dermatitis is a disease caused by an excessive imbalance between Th1 and Th2 immune responses. Thus, the cytokine concentrations measured as described above were expressed as the ratio of Th2/Th1 cytokines, and the results are shown in FIGS. 19(A), 19(B), 20(A), and 20(B).
Compound,"MIC ([1]; Bacteroides, ATCC29741)",MIC [2],MIC [3],further results
"O=C(N[C@H](CO)[C@H](O)c1ccc([N+](=O)[O-])cc1)C(Cl)Cl [CHL, chloramphenicol]",8 µg/mL,4 µg/mL,4 µg/mL,–
"CCC[C@@H]1C[C@@H](C(=O)N[C@@H]([C@H]2O[C@H](SC)[C@H](O)[C@@H](O)[C@H]2O)[C@H](C)Cl)N(C)C1 [CLI, clindamycin]",–,≤ 0.125 µg/mL,4 µg/mL,–
"CO/N=C(\C(=O)N[C@@H]1C(=O)N2C(C(=O)O)=CCS[C@H]12)c1csc(N)n1 [CTZ, ceftizoxime]",16 µg/mL,2 µg/mL,1 µg/mL,–
"C[C@@H]1C[C@H]2[C@@H]3CCC4=CC(=O)C=C[C@]4(C)[C@@]3(F)[C@@H](O)C[C@]2(C)[C@@]1(O)C(=O)CO [DEX, dexamethasone]",–,–,–,"decrease in dermatitis score [4]: 38.4%; ear edema [5]: 1.00 mm; decrease in scratching frequency [6]: about 59.4%; decrease in spleen weight [7]: 23.3%; serum IgE decrease ([8]; compared to the atopic dermatitis-induced group): 40.70%; serum IgE concentration ([8]; end of experiment, ELISA): 11891.34 ng/mL; decrease of IL-6/IFN-γ ratio [9]: 12.7%; decrease of IL-6/IL-12 ratio [9]: 34.5%"
"C[C@@H](O)[C@H]1C(=O)N2C(C(=O)O)=C(S[C@@H]3CN[C@H](C(=O)N(C)C)C3)[C@H](C)[C@H]12 [MEM, meropenem]",0.5 µg/mL,1 µg/mL,0.5 µg/mL,–
"Cc1ncc([N+](=O)[O-])n1CCO [MTZ, metronidazole]",2 µg/mL,≤ 0.25 µg/mL,0.5 µg/mL,–
"COc1c(N2C[C@@H]3CCCN[C@@H]3C2)c(F)cc2c(=O)c(C(=O)O)cn(C3CC3)c12 [MXF, moxifloxacin]",8 µg/mL,> 32 µg/mL,> 32 µg/mL,–
Piperacillin-tazobactam [PTZ],–,–,–,"MIC ([1]; QC strain ATCC 29741, broth microdilution, CLSI): 8/4"
